Values after ≈ are worked out from the molar mass of the structure shown. Like-named read-outs stand apart in the source and are kept apart here. Square brackets hold non-standard residues; d marks the D form. Peptide text beside a SMILES is read from it. * marks the point of attachment. Dolaproine = CO[C@@H]([C@@H]1CCCN1)[C@@H](C)C(=O)O; Dil = CC[C@H](C)[C@H](NC)[C@@H](CC(=O)O)OC; X1 = C[C@@H](N*)[C@@H](O)c1ccccc1; NMeV = CN[C@H](C(=O)O)C(C)C
Experiments:
Human liver Cathepsin B = biological target: T1, Human liver Cathepsin B (Homo sapiens, UniProt P07858); test: Cathepsin B cleavage assay, payload released (Example 73); type: biochemical; settings: 37° C., 50 μM substrate, pH 5
T1 construct: Human liver Cathepsin B (Athens Research & Technology, Cat #16-12-030102); purchased Athens Research & Technology 16-12-030102; host or cells: human liver
Experimental: To determine the effect on the cleavage efficiency on a steroid or LXR agonist payload when a cyclodextrin moiety was added in the linker, a Cathepsin B cleavage assay was performed. For the assay, the linker-payload stock solution (10 mM of linker-payload in DMSO) was added into a solution of 100 mM NaOAc, 10 mM dithiothreitol, at pH5 to obtain a 50 μM substrate solution. Human liver Cathepsin B (Athens Research & Technology, Cat #16-12-030102) in 50 mM NaOAc, 1 mM EDTA, at pH 5, was added to the substrate solution. The Cathepsin B and substrate solution was mixed with and without 10 mM of a Cathepsin B inhibitor (CA074; APE Bio, Cat #A1926), and incubated at 37° C. for 4 hours. Following the 4 hour incubation, acetic acid and then acetonitrile were added to stop the reaction. The quenched samples then underwent centrifugation at 14,000 rpm. Aliquots of the resultant supernatants were then diluted with equal volume of water and analyzed by LC/MS to determine the amount of payload released. The stability and activity of Cathepsin B was confirmed by incubating with 200 μM fluorogenic substrate for Cathepsin B (Santa Cruz Biotechnology, Cat #207975) (fluorescence at excitation of 340 nm/emission of 425 nm).

[1] = Solubility of linker-payloads (LC-MS standard curve, saturated solution); type: physicochemical
Experimental: The following test assays the solubility of the linker-payloads with a cyclodextrin moiety and the linker-payloads without a cyclodextrin moiety.
The test compounds were dissolved in DMSO to build a standard curve using LC-MS method A or B. The test sample was dissolved in water and sonicated for 10 minutes, and then centrifuged. The upper clear solution was analyzed using the same method A or B and the solubility was calculated based on its peak area.
Detailed test procedures were as follows: • 1. […] 0.05 mg of compound was suspended in water (1 mL) and sonicated for 10 minutes. After centrifugation, the clear solution above was collected to provide the saturated sample solution. • 3. All the standard solutions A, B, C, D, E and sample solution were analyzed by LCMS (using the same method and same injection volume) to obtain the peak areas. • 4. Calculate the standard curve according to the data of A-D (X=concentration, Y=peak areas). • 5. Calculate to obtain the concentration of saturated sample solution according to the functions obtained above.

Cathepsin B = Cathepsin B (Homo sapiens, UniProt P07858); test: Cathepsin B cleavage rate of linker-payloads (Example 66); type: biochemical; settings: for capB / CapB (%): Cathepsin B cleavage rate; for capB: Table 8A; for CapB (%): pH 5.0, 37° C.
Experimental: Step 1: Preparation of Cathepsin B buffer: 0.1 M NaOAc/0.01M DTT (pH5.0) Dissolve 8.3 g/L NaOAc, 1.54 g/L DTT in deionized water. Adjust pH to 5.0 with HCl/sodium hydroxide.
Step 2: Test Cleavage Rate
• 1. Prepare 25 μM of testing sample: To a 2-mL-tube was added 0.5 mg of testing sample, followed by the addition of 0.2 mL of DMSO. The solution was added dropwise into 0.8 mL of 0.1 M NaOAc/0.01 M DTT buffer. The obtained mixtures were sonicated for 5 minutes to obtain clear and colorless solutions. The pH value of the solution was around 5 according to pH test strip. • 2. Preheat assay buffer: 0.1 M NaOAc/0.01 M DTT (pH 5.0) • 3. Spiking solutions for test compounds: 25 μM Spiking solutions for test compounds: Add 2 μL of 5 mM stock solution into 398 μL of 0.1 M NaOAc/0.01 M DTT buffer (pH 5.0). • 4. Prepare 0.47 μg/μL Cathepsin B in 50 mM NaOAc/1 mM EDTA (pH 5.0). Put on ice. • 5. Without CA074 samples: Add 4 μL of 0.47 μg/μL Cathepsin B into 196 μL of 25 μM Spiking solutions (from step 2), incubate the tubes at 37° C. • 6. With CA074 samples: Add 4 μL of 0.47 μg/μL Cathepsin B with 4 μL of 10 mM Inhibitor (CA074) into 196 μL of 25 μM Spiking solutions (from step 2), incubate the tubes. • 7. After quenching, shake the plate and centrifuge them at 14000 rpm. • 8. Transfer 50 μL of the supernatant from each well into a 96-well sample plate containing 50 μL of ultra pure water (Millipore, ZMQS50F01) for LC/MS analysis. Step 3: Test reference compounds: • 9. Preheat assay buffer: 100 mM Na/K phosphate, pH 6.0, with 1.33 mM EDTA and 2 mM DTT. • 10. Prepare 0.024 μg/μL Cathepsin B: Add 1 μL of 0.47 μg/μL Cathepsin B stock into 19 μL of assay buffer (from step 11). • 11. Add 2 μL of 0.024 μg/μL Cathepsin B (from step 12) to a opaque 96-well plate. • 12. Add 96 μL of assay buffer to each sample. • 13. Add 2 μL of the 10 mM substrate Z-RR-MNA (200 μM final concentration). • 14. For negative control (With inhibitor), add 2 μL of 10 mM Inhibitor (CA074): Immediately read the samples in a kinetic mode at excitation of 340 nm/emission of 425 nm (Read the plate every 30 Second for 3 min). Step 4: Stability of Cathepsin B in incubation samples: • 15. Take 5 μL of incubation samples into 93 μL of assay buffer (from step 11), and then add 2 μL of 10 mM substrate (Z-RR-MNA). • 16. Incubate the samples at 37° C. for 2 min. • 17. Read the samples at excitation of 340 nm/emission of 425 nm.

SKBR3 cells = test: SKBR3 cytotoxicity assay (CellTiter-Glo); type: cell-based
Experimental: To assess the comparability of ADCs with and without CDs containing cytotoxic payloads, a cytotoxicity assay used SKBR3 cells. SKBR3 cells have been commonly used to assess aHer2 ADC activity. An aPRLR ADC has been used as a control mAb ADC in the SKBR3 cytotoxicity assay. For the assay, in vitro cytotoxicity of anti-Her2 ADCs or PRLR ADCs were evaluated using the CellTiter-Glo Assay Kit (Promega, Cat #G7573), in which the quantity of ATP present is used to determine the number of viable cells in culture. For the assay, SKBR3 cells were seeded at 6000 cells/well on Nunclon white 96 well plates in complete growth medium and grown overnight at 37° C. in 5% CO2. For cell viability curves, 1:4 serially diluted ADCs or free payload MMAE were added to the cells at concentrations starting at 100 nM including a no treatment control and were then incubated for 5 days. After the 5-day incubation, cells were incubated at room temperature with 100 μL of CellTiter-Glo reagents for 5 minutes. Relative luminescence units (RLU) were determined on a Victor plate reader (PerkinElmer). The IC50 values were determined from a four-parameter logistic equation over a 10-point response curve (GraphPad Prism). All curves and EC50 values were corrected for payload equivalents. All IC50s are expressed in nM concentration and percentage of cells killed (% kill) is reported for the highest concentration tested.

[2] = water, thermodynamic from solid, Table 8A, read-out: Solubility
[3] = water, thermodynamic from solid, aqueous, read-out: Aq. Solubility
[4] = water, thermodynamic from solid, Aq. Solubility (mg/mL)
[5] = water, thermodynamic from solid, Solubility

Structure (SMILES) | Percent of payload released at 4 hrs (Human liver Cathepsin B) | solubility at 10 min [1, 2] [µg/mL] | solubility at 10 min [1, 3] [µg/mL] | solubility at 10 min ([1]; water, thermodynamic from solid, water, read-out: Solubility) [µg/mL] | capB (Cathepsin B) | CapB (%) (Cathepsin B) | Solubility ([1]; 10 min) [mg/ mL mg/mL] | solubility at 10 min [1, 4] [µg/mL] | solubility at 10 min [1, 5] [µg/mL] | Cathepsin B cleavage rate (Cathepsin B) [%] | EC50 (SKBR3 cells; Homo sapiens, SK-BR-3, 120 h) [nM] | % kill (SKBR3 cells; SKBR3 cells, 5 days, highest concentration tested) [%] | Concentration (mM) of saturated solution ([1]; 10 min) [mM] | solubility thermodynamic at 10 min ([1]; water, thermodynamic from solid) [µg/mL]
CCCC1O[C@@H]2C[C@H]3[C@@H]4C[C@H](F)C5=CC(=O)C=C[C@]5(C)[C@@]4(F)[C@@H](O)C[C@]3(C)[C@]2(C(=O)CNC(=O)OCc2ccc(NC(=O)[C@H](CCCNC(N)=O)NC(=O)[C@@H](NC(=O)[C@@H](CCCCNC(=O)COC3CCCCCc4c3nnn4CC3OC4OC5C(CO)OC(OC6C(CO)OC(OC7C(CO)OC(OC8C(CO)OC(OC9C(CO)OC(OC3C(O)C4O)C(O)C9O)C(O)C8O)C(O)C7O)C(O)C6O)C(O)C5O)NC(=O)CCOCCOCCOCCOCCNC(=O)CCC(=O)N3Cc4ccccc4C#Cc4ccccc43)C(C)C)cc2)O1 (stereo partly shown) [Ex59, DIBAC-suc-PEG4-dLys(COT-CD)-vcPAB-1h] | 28.9% | 26 (≈ 9.64 µM) | 26 (≈ 9.64 µM) | 26 (≈ 9.64 µM) | 29% | % (% ≤50 CapB (%)) |  |  |  |  |  |  |  | 
CC(C)[C@H](NC(=O)CCOCCOCCOCCOCCNC(=O)CCC(=O)N1Cc2ccccc2C#Cc2ccccc21)C(=O)N[C@@H](C)C(=O)Nc1ccc2c(c1)[C@@]1(C)CCC[C@](C)(C(=O)NC(=O)[C@@]3(C)CCC[C@]4(C)c5cc(O)ccc5CC[C@@H]34)[C@@H]1CC2 [Ex48, 1-(4-{2-Azatricyclo[10.4.0.0^4,9]hexadeca-1(12),4(9),5,7,13,15-hexaen-10-yn-2-yl}-4-oxobutanamido)-N-[(1S)-1-{[(1 S)-1-{[(4bS,8S,8aR)-8-{[(1S,4aS,10aR)-6-hydroxy-1,4a-dimethyl-1,2,3,4,4a,9,10,10a-octahydrophenanthrene-1-carbonyl]carbamoyl}-4b,8-dimethyl-4b,5,6,7,8,8a,9,10-octahydrophenanthren-3-yl]carbamoyl}ethyl]carbamoyl}-2-methylpropyl]-3,6,9,12-tetraoxapentadecan-15-amide] | 13.6% |  |  |  | 13.6% | % (% ≤50 CapB (%)) | <0.1 | < 100 | < 100 | 62 |  |  |  | 
CCCC1O[C@@H]2C[C@H]3[C@@H]4C[C@H](F)C5=CC(=O)C=C[C@]5(C)[C@@]4(F)[C@@H](O)C[C@]3(C)[C@]2(C(=O)CNC(=O)OCc2ccc(NC(=O)[C@H](CCCNC(N)=O)NC(=O)[C@@H](NC(=O)CCOCCOCCOCCOCCNC(=O)CCC(=O)N3Cc4ccccc4C#Cc4ccccc43)C(C)C)cc2)O1 (stereo partly shown) [Ex58, DIBAC-suc-PEG4-vcPAB-1h] | 7.5-17.2% | < 20 | < 20 |  | 20.8% | % (% ≤50 CapB (%)) |  |  |  |  |  |  |  | 
CC[C@H](C)[C@@H]([C@@H](CC(=O)N1CCC[C@H]1[C@H](OC)[C@@H](C)C(=O)N[C@H](C)[C@@H](O)c1ccccc1)OC)N(C)C(=O)[C@@H](NC(=O)[C@@H](NC)C(C)C)C(C)C [MMAE] (H-[NMeV]V[Dil][Dolaproine]-X1) |  |  |  |  |  |  |  |  |  |  | 0.19 | ≥90 |  | 
CC(C)[C@H](NC(=O)[C@@H](CCCCNC(=O)COC1CCCCCc2c1nnn2CC1OC2OC3C(CO)OC(OC4C(CO)OC(OC5C(CO)OC(OC6C(CO)OC(OC7C(CO)OC(OC1C(O)C2O)C(O)C7O)C(O)C6O)C(O)C5O)C(O)C4O)C(O)C3O)NC(=O)CCOCCOCCOCCOCCNC(=O)CCC(=O)N1Cc2ccccc2C#Cc2ccccc21)C(=O)N[C@@H](C)C(=O)Nc1ccc2c(c1)[C@@]1(C)CCC[C@](C)(C(=O)NC(=O)[C@@]3(C)CCC[C@]4(C)c5cc(O)ccc5CC[C@@H]34)[C@@H]1CC2 (stereo partly shown) [Ex49] | 38.5% |  |  |  | 38.5% [1] | % % (60< % % ≤70 CapB (%)) | 0.05 | 50 (≈ 19.8 µM) | 50 (≈ 19.8 µM) |  |  |  | 0.019 | 48 (≈ 19 µM)
